The results in this text go back to US12528801B2 (Givaudan SA, priority 2019, dated 2026).

In one experiment the target is T1, hTRPM8 (Homo sapiens, UniProt Q7Z2W7).
T1 construct: expressed in transfected cells
Nature of the experiment: Assay on TRPM8 modulators: calcium imaging (Fluo-4, Flexstation) in HEK293 cell line stably expressing hTRPM8. To be noted: HEK293 cells stably expressing hTRPM8; calcium influx, Fluo-4, Flexstation 3; sigmoidal dose-response fit. The class given is cell-based. In a few lines:
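HEK293 cells stably expressing hTRPM8 were loaded with Fluo-4 AM plus probenecid and kept in HEPES buffer, pH 7.4. Calcium influx to serially diluted compounds was recorded for 120 s. Maximal activation was referenced to solvent control and 31.6 μM menthol, with EC values from sigmoidal dose-response fits.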

Experiment [1] concerns trained group of panelists. Nature of the experiment: Sensory studies in aqueous solution (trained panel, mouth swill). The format is in vivo, human. The settings on record: 10 ppm in aqueous solution; for Time of max. cooling / Max. cooling: 20 mL swilled in the mouth for 60 seconds; for Max. cooling / Cooling after 1 h: panel-averaged cooling score, scale 0 to 10; for Cooling after 1 h: 1 h after swilling. On the procedure:
The compounds as listed below in Table 2 were dissolved at a concentration of 1 wt-% in propylene glycol. These solutions were then dispensed in appropriate quantities into deionized water containing 0.5 wt-% Poloxamer 407 (which is a hydrophilic non-ionic surfactant, e.g., commercially available from SigmaAldrich) and 0.25 wt-% Cremaphor® RH40 (obtained from BASF) as solubilizer, to obtain the desired final concentration of 10 ppm (parts per million) of the respective compound.
A trained group of panelists evaluated the aqueous solutions containing test compound by swilling 20 mL of the solution in the mouth for 60 seconds, followed by spitting, without rinsing the mouth afterwards for the duration of the evaluation. Panelists evaluated and recorded the cooling performance as well as other sensorial and organoleptic attributes at different timepoints over a period of two hours. Cooling performance was rated on a scale from 0 to 10 with 0 being no effect and 10 being freezing. Scores were averaged for all panelists and the cooling intensity qualified as “none” (score of 0), “low” (score above 0, up to 1), “medium” (score above 1, up to 4) “strong” (score above 4, up to 8) and “freezing” (score above 8), which are provided in Table 2.

The subject of experiment [2] is trained group of panelists. Description: Sensory studies in model dentifrice (trained panel, tooth brushing). The class given is in vivo, human. To be noted: 40 ppm in model unflavored dentifrice; for Cooling after 1 h: 1 h after brushing; for Cooling after 1 h / Max. cooling: panel-averaged score 0 to 10; for Time of max. cooling / Max. cooling: brushing with 1 g for 60 seconds; for Max. cooling: stock in propylene glycol (A) or benzyl alcohol (B). Here is the method:
The compounds listed in Table 3 were dissolved at a concentration of 1 wt-% in propylene glycol^A or benzyl alcohol^B (respective solvents indicated in Table 3). These solutions were then dispersed in appropriate quantities to obtain the desired final concentration of 40 ppm (parts per million) of the test compound into a model, unflavored dentifrice, the formula of which is given below (ingredients obtained from the suppliers respectively indicated in parenthesis).
A trained group of panelists evaluated the dentifrice containing a compound of formula (I), by brushing their teeth with 1 g of the dentifrice using a toothbrush for 60 seconds, followed by spitting, without rinsing the mouth afterwards for the duration of the evaluation. Panelists evaluated and recorded the cooling performance as well as other sensorial and organoleptic attributes at different timepoints over a period of two hours. Cooling performance was rated on a scale from 0 to 10 with 0 being no effect and 10 being freezing. Scores were averaged for all panelists and the cooling intensity qualified as “none” (score of 0), “low” (score above 0, up to 1), “medium” (score above 1, up to 4) “strong” (score above 4, up to 8) and “freezing” (score above 8), which are summarized below in Table 3.

T1 sequence (Q7Z2W7 whole entry): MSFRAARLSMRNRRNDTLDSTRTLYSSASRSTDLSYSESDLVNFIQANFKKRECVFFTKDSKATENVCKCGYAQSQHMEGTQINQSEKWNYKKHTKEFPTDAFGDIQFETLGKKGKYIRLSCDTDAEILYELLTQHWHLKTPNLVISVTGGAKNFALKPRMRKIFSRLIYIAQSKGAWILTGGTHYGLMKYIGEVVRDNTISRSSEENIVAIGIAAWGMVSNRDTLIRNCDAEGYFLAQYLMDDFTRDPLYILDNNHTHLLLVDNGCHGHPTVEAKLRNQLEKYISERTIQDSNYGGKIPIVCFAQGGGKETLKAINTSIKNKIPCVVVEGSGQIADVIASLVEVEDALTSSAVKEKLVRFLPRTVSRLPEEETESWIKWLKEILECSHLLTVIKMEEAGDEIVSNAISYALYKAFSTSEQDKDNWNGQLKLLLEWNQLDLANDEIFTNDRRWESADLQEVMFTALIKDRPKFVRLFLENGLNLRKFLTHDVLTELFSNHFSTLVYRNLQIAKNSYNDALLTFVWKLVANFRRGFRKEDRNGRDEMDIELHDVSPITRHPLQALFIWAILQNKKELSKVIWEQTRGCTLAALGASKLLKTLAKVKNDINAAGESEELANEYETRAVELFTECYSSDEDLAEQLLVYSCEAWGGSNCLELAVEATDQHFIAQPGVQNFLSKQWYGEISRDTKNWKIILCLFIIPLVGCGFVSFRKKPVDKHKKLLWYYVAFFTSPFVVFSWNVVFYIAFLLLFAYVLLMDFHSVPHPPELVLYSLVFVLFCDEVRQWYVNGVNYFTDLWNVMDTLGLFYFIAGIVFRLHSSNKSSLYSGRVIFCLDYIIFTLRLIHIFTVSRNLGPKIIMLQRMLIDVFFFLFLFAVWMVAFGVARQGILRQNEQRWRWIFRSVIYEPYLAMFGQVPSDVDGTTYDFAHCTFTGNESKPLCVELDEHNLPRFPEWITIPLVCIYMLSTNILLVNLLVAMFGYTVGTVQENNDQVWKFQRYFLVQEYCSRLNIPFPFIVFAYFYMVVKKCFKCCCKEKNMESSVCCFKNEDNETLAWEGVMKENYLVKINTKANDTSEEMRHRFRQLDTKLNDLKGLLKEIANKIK

By EC50 is commonly meant the concentration giving half of the maximal effect. For the compound `CS[C@H](C)C(=O)N1CCCC[C@@H]1c1ncc(-c2ccc(C)cc2)[nH]1` [Compound 11, (R)-2-(methylthio)-1-((R)-2-(5-(p-tolyl)-1H-imidazol-2-yl)piperidin-1-yl)propan-1-one], on hTRPM8, the EC50 was under 50 nM. Further, in experiment [1], the “Time of max. cooling” value came out at 10 min, the Max. cooling result is on record as “S (S = Strong)” and the “Cooling after 1 h” value is given as “M (M = medium)”. In addition, in experiment [2], the “Cooling after 1 h” value is given as “M (M = medium)”, the “Time of max. cooling” value is 20 min and the Max. cooling result was “S (S = Strong)”.

Take `CCSC(C)C(=O)N1CCCCC1c1ncc(-c2ccc(C)cc2)[nH]1` (stereo not shown) [Compound 95, 2-(ethylthio)-1-(2-(5-(p-toly)-1H-imidazol-2-yl)piperidin-1-yl)propan-1-one]: the 50% effective concentration (EC50) at hTRPM8 was under 50 nM. Besides, in experiment [1], the “Time of max. cooling” value turned out to be 10 min, the Max. cooling entry was “M (M = medium)” and the “Cooling after 1 h” value was “M (M = medium)”. In addition, in experiment [2], the “Cooling after 1 h” value is listed as “L (L = Low)”, the “Time of max. cooling” value is listed as 5 min and the Max. cooling entry is on record as “M (M = medium)”.

Consider `CSC(C)C(=O)N1CCCCC1c1ncc(-c2ccc(C(F)(F)F)cc2)[nH]1` (stereo not shown) [Compound 124, 2-(methylthio)-1-(2-(5-(4-(trifluoromethyl)phenyl)-1H-imidazol-2-yl)piperidin-1-yl)propan-1-one], for which the concentration giving a half-maximal response (EC50) at hTRPM8 was under 50 nM. For the same compound, in experiment [1], the “Time of max. cooling” value amounted to 20 min, the Max. cooling entry is “M (M = medium)” and the “Cooling after 1 h” value was “M (M = medium)”. Moreover, in experiment [2], the “Cooling after 1 h” value is on record as “M (M = medium)”, the “Time of max. cooling” value is 30 min and the Max. cooling entry is “M (M = medium)”.

As for `CSC(C)C(=O)N1CCCCC1c1ncc(-c2ccc(C)s2)[nH]1` (stereo not shown) [Compound 127, 2-(methylthio)-1-(2-(5-(5-methylthiophen-2-yl)-1H-imidazol-2-yl)piperidin-1-yl)propan-1-one], the 50% effective concentration (EC50) on hTRPM8 was under 50 nM. Moreover, in experiment [1], the “Time of max. cooling” value is given as 10 min, the Max. cooling entry is “S (S = Strong)” and the “Cooling after 1 h” value is “M (M = medium)”.

As for `CSC(C)C(=O)N1CCCCC1c1ncc(-c2ccccc2)[nH]1` (stereo not shown) [Compound 135, 2-(methylthio)-1-(2-(5-phenyl-1H-imidazol-2-yl)piperidin-1-yl)propan-1-one], the EC50 at hTRPM8 was under 50 nM. For the same compound, in experiment [1], the “Time of max. cooling” value was 10 min, the Max. cooling result was “M (M = medium)” and the “Cooling after 1 h” value was “L (L = Low)”.

Turning to `CSC(C)C(=O)N1CCCCC1c1nc(-c2ccc(S(=O)(=O)NCCO)cc2)c[nH]1` (stereo not shown) [Compound 189, N-(2-hydroxyethyl)-4-(2-(1-(2-(methylthio)propanoyl)piperidin-2-yl)-1H-imidazol-4-yl)benzenesulfonamide], the EC50 on hTRPM8 was 1000 to 35000 nM.

As for `CSC(C)C(=O)N1CCCCC1c1ncc(-c2cccc([N+](=O)[O-])c2)[nH]1` (stereo not shown) [Compound 190, 2-(methylthio)-1-(2-(5-(3-nitrophenyl)-1H-imidazol-2-yl)piperidin-1-yl)propan-1-one], the EC50 at hTRPM8 is under 50 nM.

In the case of `CSC(C)C(=O)N1CCCCC1c1nc(-c2ccc(NS(C)(=O)=O)cc2)c[nH]1` (stereo not shown) [Compound 191, N-(4-(2-(1-(2-(methylthio)propanoyl)piperidin-2-yl)-1H-imidazol-4-yl)phenyl)methanesulfonamide], the EC50 at hTRPM8 lay in the range of 1000 to 35000 nM.

As for `CSC(C)C(=O)N1CCCCC1c1ncc(-c2ccc([N+](=O)[O-])cc2)[nH]1` (stereo not shown) [Compound 192, 2-(methylthio)-1-(2-(5-(4-nitrophenyl)-1H-imidazol-2-yl)piperidin-1-yl)propan-1-one], on hTRPM8, the concentration giving a half-maximal response (EC50) was under 50 nM.

As to `Cc1ccc(-c2cnc(C3CCCCN3C(=O)C3CC3(C)C)[nH]2)cc1` (stereo not shown) [Compound 193, (2,2-dimethylcyclopropyl)(2-(5-(p-toly)-1H-imidazol-2-yl)piperidin-1-yl)methanone], the EC50 at hTRPM8 is under 50 nM.

Turning to `CCC(C)C(=O)N1CCCCC1c1ncc(Br)[nH]1` (stereo not shown) [Compound 194, 1-(2-(5-bromo-1H-imidazol-2-yl)piperidin-1-yl)-2-methylbutan-1-one], on hTRPM8, the EC50 fell in the range of 1000 to 35000 nM.

For `CCC(C)C(=O)N1CCCCC1c1ncc(-c2ccc(Cl)cc2)[nH]1` (stereo not shown) [Compound 195, 1-(2-(5-(4-chlorophenyl)-1H-imidazol-2-yl)piperidin-1-yl)-2-methylbutan-1-one], the EC50 at hTRPM8 is under 50 nM.

With `CSC(C)C(=O)N1CCCCC1c1ncc(-c2ccc(CC#N)cc2)[nH]1` (stereo not shown) [Compound 196, 2-(4-(2-(1-(2-(methylthio)propanoyl)piperidin-2-yl)-1H-imidazol-5-yl)phenyl)acetonitrile], the EC50 at hTRPM8 was under 50 nM.

Consider `CCC(C)C(=O)N1CCCCC1c1ncc(-c2ccc(CC#N)cc2)[nH]1` (stereo not shown) [Compound 197, 2-(4-(2-(1-(2-methylbutanoyl)piperidin-2-yl)-1H-imidazol-5-yl)phenyl)acetonitrile], for which the 50% effective concentration (EC50) at hTRPM8 is under 50 nM.

Take `CCC(C)C(=O)N1CCCCC1c1ncc(-c2ccc(C#N)cc2)[nH]1` (stereo not shown) [Compound 198]: the concentration for a half-maximal effect (EC50) at hTRPM8 was under 50 nM.

Consider `Cc1ccc(-c2cnc(C3CCCCN3C(=O)C(C)C(C)C)[nH]2)cc1` (stereo not shown) [Compound 199, 2,3-dimethyl-1-(2-(5-(p-tolyl)-1H-imidazol-2-yl)piperidin-1-yl)butan-1-one], for which, at hTRPM8, the concentration giving a half-maximal response (EC50) is under 50 nM.

Consider `CCC(C)C(=O)N1CCCCC1c1ncc(-c2ccccc2C)[nH]1` (stereo not shown) [Compound 200, 2-methyl-1-(2-(5-(o-tolyl)-1H-imidazol-2-yl)piperidin-1-yl)butan-1-one], for which the EC50 at hTRPM8 was 50 to 300 nM.

Turning to `CCC(C)C(=O)N1CCCCC1c1ncc(-c2cccc(C)c2)[nH]1` (stereo not shown) [Compound 201, 2-methyl-1-(2-(5-(m-tolyl)-1H-imidazol-2-yl)piperidin-1-yl)butan-1-one], at hTRPM8, the EC50 lay in the range of 50 to 300 nM.

As for `CCC(C)C(=O)N1CCCCC1c1ncc(-c2ccc(CO)cc2)[nH]1` (stereo not shown) [Compound 202, 1-(2-(5-(4-(hydroxymethyl)phenyl)-1H-imidazol-2-yl)piperidin-1-yl)-2-methylbutan-1-one], the concentration for a half-maximal effect (EC50) at hTRPM8 was 50 to 300 nM.

Consider `Cc1ccc(-c2cnc(C3CCCCN3S(=O)(=O)C(C)C)[nH]2)cc1` (stereo not shown) [Compound 203, 1-(isopropylsulfonyl)-2-(5-(p-tolyl)-1H-imidazol-2-yl)piperidine], for which the concentration for a half-maximal effect (EC50) at hTRPM8 lay in the range of 300 to 1000 nM.

Regarding `CCC(C)S(=O)(=O)N1CCCCC1c1ncc(-c2ccc(C)cc2)[nH]1` (stereo not shown) [Compound 204, 1-(sec-butylsulfonyl)-2-(5-(p-tolyl)-1H-imidazol-2-yl)piperidine], the concentration giving a half-maximal response (EC50) at hTRPM8 was 1000 to 35000 nM.

As to `CCC(C)C(=O)N1CCCCC1c1ncc(-c2ccc(C)s2)[nH]1` (stereo not shown) [Compound 205, 2-methyl-1-(2-(5-(5-methylthiophen-2-yl)-1H-imidazol-2-yl)piperidin-1-yl)butan-1-one], the EC50 on hTRPM8 is under 50 nM.

Take `CSC(C)C(=O)N1CCNCC1c1ncc(-c2ccc(C)cc2)[nH]1` (stereo not shown) [Compound 206, 2-(methylthio)-1-(2-(5-(p-toly)-1H-imidazol-2-yl)piperazin-1-yl)propan-1-one]: the EC50 on hTRPM8 is under 50 nM.

As for `CSC(C)C(=O)N1CCCCC1c1nc(-c2ccc(C)cc2)co1` (stereo not shown) [Compound 207, 2-(methylthio)-1-(2-(4-(p-tolyl)oxazol-2-yl)piperidin-1-yl)propan-1-one], the EC50 on hTRPM8 is under 50 nM.

As to `CCC(C)C(=O)N1CCCCC1c1nc(-c2ccc(C)cc2)co1` (stereo not shown) [Compound 208, 2-methyl-1-(2-(4-(p-tolyl)oxazol-2-yl)piperidin-1-yl)butan-1-one], the concentration for a half-maximal effect (EC50) at hTRPM8 was under 50 nM.
